Series [1] can be described thus: Photoluminescence quantum yield determination. Format: physicochemical. On the procedure: For the photoluminescence spectroscopy, all emission spectra were acquired on a Horiba Scientific PTI QuantaMaster fluorometer. Low temperature emission spectra were recorded by adding samples in 1:1 DCM:toluene into quartz EPR tubes and lowering the tube into an optical dewar filled with liquid N2. Excitation emission matrices were acquired on a Horiba Scientific Fluorolog-3 spectrofluorometer.
The samples, sealed in NMR tubes, were individually placed in an integrating sphere (Thorlabs, IS200-4) with a PbSe detector (Thorlabs, PDA20H) on one port and directly excited by an 808 nm diode laser (Thorlabs, M9-808-0150) of 15 W/cm^2 average intensity under 1 kHz square-wave modulation. The detector signal S, with and without a silicon window on the detector port, was recorded with the sample and with a DCM blank. […] The photoluminescence quantum yield is therefore SS,Si/(SD−SS)×( ? 808/ ? λS)×T^−1 where the subscripts S, D and Si respectively denote the sample, DCM blank, and silicon window. R is the wavelength-dependent PbSe detector responsivity, T is the total emission power transmitted by the silicon window, and λS is the average emission wavelength determined by integration of the spectrum. The detector responsivity is linear with wavelength in this spectral range so that ? 808/ ? λS=808/λS. Due to the spectral overlap between the sample emission and the soft absorption edge of silicon, we calculate T explicitly as ∫E(λ)dλ×
where E(λ) is the normalized sample emission spectrum and T(λ) is the T(λ) normalized silicon window transmission spectrum.
Comparative results for the diradical dication PtTTFtt against a conventional near IR dye (IR 26) provide PLQY of 0.09% in oxygenated 1,2-dichloroethane for compound 2 (PtTTFtt) in comparison to 0.05% for IR 26, as illustrated in FIG. 10.

A short description of series [2]: Cell viability assay after 72 hr treatment. The settings on record: 1% DMSO solution, preliminary. Format: cell-based. An excerpt: FIG. 21 is a cell viability assay of compound 4 after 72 hr treatment, using 1% DMSO solution in accordance with certain disclosed embodiments.
A short description of series [3]: Stability of compound 4 (irradiation, air, serum, buffer, water). The format is physicochemical.
Series [4] can be described thus: Reactivity in the presence of small nucleophiles and ubiquitin (preliminary proteomics studies). The following applies: ubiquitin.
For series [5] the following is noted: 1,2-dichloroethane, background statement; cited from earlier work.
The conditions of series [6]: 1,2-dichloroethane, background statement; cited from earlier work. The source holds these as a separate data set.

Consider “[(Pt{P(4-CF3Ph)3}2)2TTFtt][BAr^F4]2 [Compound 3]”, for which, in series [1] (57 μM, dichloromethane, 298K, anaerobic conditions, highest of compounds 1-3), the “photoluminescence quantum yield (PLQY)” value was found to be 0.43%.

In the case of “[(Pt{dppe})2TTFtt][BAr^F4]2 [Compound 2]”, the “photoluminescence quantum yield (PLQY)” value in series [1] (oxygenated 1,2-dichloroethane) amounted to 0.09%.

With “(Pt{1,5-cyclooctadiene})2 tetrathiafulvalene-2,3,6,7 tetrathiolate diradical dication [Compound 4]”, in series [2], the toxicity result is reported as “nontoxic”. Besides, the “stability to air, fetal bovine serum and phosphate buffer” value in series [3] is reported as “demonstrated”. The molecule also returned a persistence of photoluminescence in series [3] (continuous irradiation) of 21 h. For the same molecule, in series [3] (crystallized out of 1:2 MeCN:water over 6 months), the “stability to water and air” value is recorded as “remarkable stability”. In addition, in series [4], the “integrity after exposure to proteins and small nucleophiles” value is given as “remains intact”.

Consider `ClC1=C(/C=C/c2cc(-c3ccccc3)[s+]c3ccccc23)CCC/C1=C\C=C1/C=C(c2ccccc2)Sc2ccccc21.[O-][Cl+3]([O-])([O-])[O-]` [IR 26, 4-(7-(2-phenyl-4H-1-benzothiopyran-4-ylidene)-4-chloro-3,5-trimethylene-1,3,5-heptatrienyl)-2-phenyl-1-benzothiopyrylium perchlorate], for which the “photoluminescence quantum yield (PLQY)” value in series [1] (oxygenated 1,2-dichloroethane) came to 0.05%. In addition, in series [5], the PLQY is 0.05%. Moreover, the emission result in series [6] is “around 1130 nm”.

(Values after patent US20250319211A1, “NEAR IR LUMINESCENCE AND OPTICALLY ADDRESSABLE QUANTUM SENSING AND MAGNETIC IMAGING WITH RADICALOID TETRATHIAFULVALENE TETRATHIOLATES” (The University of Chicago, priority 2022, published 2025).)
